Experimental data as given in patent US20220275534A1, “Peptide Library Production Method” (The University of Tokyo, priority 2018, published 2022).
Positions of bridges follow the written chain, without caps; N, C: chain ends. Non-standard residues stand in square brackets, D forms with d. No end group written: not given here.

Tests used:
KgpF [1] = assay: Prenylation of translated thioether-closed artificial cyclic peptides with KgpF, MALDI-TOF-MS analysis (Examples 1-9; 37° C., 18 hours); type: biochemical, Microcystis aeruginosa; settings: Examples 4-7: 160 μM KgpF, 2 mM DMAPP
Procedure: With regards to each of KgpF and OltF, heterogeneous co-expression of a gene synthesized after optimizing the codon of a gene derived from a producing strain was performed in Escherichia coli, followed by purification to obtain a prenylation enzyme.
The analysis was performed using UltrafleXtreme (Bruker Daltonics) or Autoflex II (Bruker Daltonics) and peptide calibration standard II (Bruker Daltonics).
In short, six kinds in total of peptides were obtained by translation and synthesis under (Conditions 1) of the artificial translation system developed by the present inventors. The peptides thus obtained were then reacted with 14.7 μM KgpF at 37° C. for 18 hours in the system shown in (Conditions 2). “DMAPP” used in (Conditions 2) is dimethylallyl pyrophosphoric acid.
(Conditions 1) • FIT system: v7s/v8.0.3 • 19aa-Met: 0.5 mM • ClAc-D or L-Trp-tRNA^fMetCUA: 90 μM • Reaction: 37° C., 60 min. • Scale: […] scale
(Conditions 2) • Translated mixture amount: 2.5 μL (mixture obtained under (Conditions 1)) • KgpF: 14.7 μM • DMAPP: 2 mM • Total amount: 15.7 μL • Reaction: 37° C., 18 hours
The YG280 sequences having the steric configuration of the N terminal Trp serving as an initiation residue of D-form and those of L-form were synthesized, so that two kinds of peptides were prepared in total. These two kinds of artificial cyclic peptides were obtained by translation and synthesis in the artificial translation system (Conditions 3) developed by the present inventors. The peptides thus obtained were then reacted with 53, 160, and 580 μM KgpF in a system shown in (Conditions 4) at 37° C. for 18 hours.
(Conditions 3) • FIT system: v7s/v8.0.3 • 19aa-Met: 0.5 mM • ClAc-D or L-Trp-tRNA^fMetCUA: 120 μM • Reaction: 37° C., 3 hours • Scale: 2.5 μL scale
(Conditions 4) • Translated mixture amount: 2.5 μL (mixture obtained under (Conditions 3)) • KgpF: 53, 160, 580 μM • DMAPP: 2 mM • Reaction: 37° C., 18 hours
(§1) The above three kinds of artificial cyclic peptides were obtained by translation and synthesis in the artificial translation system (Conditions 5) developed by the present inventors. The peptides thus obtained were then reacted with KgpF in the system shown below in (Conditions 6) at 37° C. for 18 hours.
(Conditions 5) • FIT system: v7s/v8.0.3 • 19aa-Met: 0.5 mM • ClAc-D or L-Trp-tRNA^fMetCUA: 90 μM • Reaction: 37° C., 60 min. • Scale: 2.5 μL scale
(Conditions 6) • Translated mixture amount: 2.5 μL (mixture obtained under (Conditions 5)) • KgpF: 160 or 580 μM • DMAPP: 2 mM • Reaction: 37° C., 18 hours
as §1, with “six” for “three”, “7)” for “5)”, “with 160 μM” for “with”, “shown” for “shown below”, “8)” for “6)”
(Conditions 7) • FIT system: v7s/v9.1 • 19aa-Met: 0.5 mM • ClAc-D-Tyr-tRNA^fMetCUA: 90 μM • Reaction: 37° C., 60 min. • Scale: 2.5 μL scale
(Conditions 8) • Translated mixture amount: 2.5 μL (mixture obtained under (Conditions 7)) • KgpF: 160 μM • DMAPP: 2 mM • Reaction: 37° C., 18 hours
as §1, with “9)” for “5)”, “with 160 μM” for “with”, “shown” for “shown below”, “10)” for “6)”
(Conditions 9) • FIT system: v7s/v9.1 • 19aa-Met: 0.5 mM • ClAc-D-Tyr-tRNA^fMetCUA: 90 μM • Reaction: 37° C., 60 min. • Scale: 2.5 μL scale
(Conditions 10) • Translated mixture amount: 2.5 μL (mixture obtained under (Conditions 9)) • KgpF: 160 μM • DMAPP: 2 mM • Reaction: 37° C., 18 hours
The above artificial cyclic peptides were obtained by translation and synthesis in the artificial translation system (Conditions 11) developed by the present inventors. […]

KgpF v 3.1 = assay: Prenylation of artificial cyclic peptides with 10 μM KgpF v 3.1 (Example 11; Table 7); type: biochemical, Microcystis aeruginosa; design: key: 5: strong intensity; 4: medium intensity; 3: weak intensity; 2: very weak intensity; 1: no peak; N/A: not observed; settings: KgpF v 3.1 10 μM
Procedure: Reaction of the artificial cyclic peptide shown in Table 7 was made under conditions similar to (Conditions 11) and (Conditions 12) except that v8s/v11.1 was used as FIT system, KgpF v 3.1 was used as a prenylation modification enzyme, and the concentration of the KgpF v 3.1 was set at 10 μM. Here, KgpF v 3.1 is an enzyme having a higher purification degree and more improved specific activity than KgpF used under (Conditions 12).

OltF = assay: Prenylation of Trp present at N terminal with OltF (Example 23); type: biochemical, Planktothrix; settings: 100 μM OltF, 2.1 mM DMAPP, 37° C., 18 hours (FIG. 19, FIG. 20)
Procedure: The cyclic peptide shown below was obtained by translation and synthesis under the following (Conditions 32) in the artificial translation system developed by the present inventors. The translated mixture thus obtained was then reacted (prenylated) under the following (Conditions 33).
(Conditions 32) • 19aa-mix (19 kinds of proteinogenic amino acids other than M)]: 0.5 mM • ClAc-D-Tyr-tRNA^fMetCUA: 50 μM • Reaction: 37° C. and 30 minutes in an artificial translation-system solution. • Scale: 2.5 μL scale
(Conditions 33) • Translated mixture amount: 2.5 μL (mixture obtained under (Conditions 32)) • OltF: 100 μM • DMAPP: 2.1 mM • Reaction: 37° C., 18 hours • Scale: 5.7 μL scale

KgpF [2] = assay: Modification of the same peptides with KgpF in liquid phase, Conditions 13/14 with 14 hours (Example 18; Table 17); type: biochemical, Microcystis aeruginosa; design: key: 5: strong intensity; 4: medium intensity; 3: weak intensity; 2: very weak intensity; 1: no peak; N/A: not observed; settings: KgpF Liquid phase 160 μM
Procedure: (Conditions 13) • FIT system: v8s/v11.0 • 19aa-Met: 0.5 mM • ClAc-D-Tyr-tRNA^fMetCUA: 90 μM • Reaction: 37° C., 60 min. • Scale: 2.5 μL scale
(§2) After the above reaction was performed, the reaction product was incubated at 25° C. for 12 minutes.
(§3) Then, a cyclization reaction was performed under the following conditions. • Translated mixture amount: 2.5 μL (mixture obtained by the above reaction) • EDTA: 18 mM • Reaction: 42° C., 60 min. • Scale: 2.75 μL scale
(Conditions 14) • Translated mixture amount: 2.75 μL (mixture obtained under (Conditions 13)) • KOH: 6.0 mM • Mg(OAc)2: 9.0 mM • Tris-HCl (pH 8.3) 15 mM • KgpF: 160 μM • DMAPP: 2 mM • Reaction: 0° C., 20 hours
(§4) The artificial cyclic peptides shown in Table were synthesized under (Conditions 25) and were brought into contact with KgpF in solid phase under (Conditions 26). In addition, the same peptides were reacted in liquid phase under conditions shown in (Conditions 13) and (Conditions 14) except that the prenylation reaction time was changed to 14 hours.

[3] = system: KgpF immobilized onto magnetic beads; assay: Modification of artificial cyclic peptides with KgpF immobilized onto magnetic beads, solid phase (Example 18; Table 17); type: biochemical, Microcystis aeruginosa; design: key: 5: strong intensity; 4: medium intensity; 3: weak intensity; 2: very weak intensity; 1: no peak; N/A: not observed; settings: KgpF Solid phase (magnetic beads) 72 μM, 4° C., 14 hours
Source text: Dynabeads His-Tag Isolation and Pulldown (Invitrogen) was brought into contact with KgpF having a His-tag added N terminal and the KgpF was immobilized onto the magnetic beads. […] When it exceeded a predetermined amount, immobilization reached saturation.
as §4
(Conditions 25) • FIT system: v8s/v11.1 • 19aa-Met: 0.5 mM • ClAc-D-Tyr-tRNA^fMetCUA: 90 μM • Reaction: 37° C., 60 min. • Scale: 2.5 μL scale
as §2, §3
(Conditions 26) • Translated mixture amount: 2.75 μL (mixture obtained under (Conditions 25)) • KOH: 6.0 mM • Mg(OAc)2: 9.0 mM • Tris-HCl (pH 8.3) 15 mM • KgpF immobilized onto magnetic beads: 72 μM • DMAPP: 2 mM • Reaction: 4° C., 14 hours, rotation mixing

MetAP1 = MetAP1 (Homo sapiens, UniProt P53582); assay: MetAP1 inhibition test of prenylated cyclic peptide (probe fluorescence); type: biochemical; settings: prenylated peptide at 1 μM, 5 μM or 10 μM; cofactor Mn2+ or Co2+ 100 μM; MetAP1 1 μM; 37° C., 120 min (FIG. 13)
Procedure: A MetAP1 inhibition test was performed in vitro using the prenylated Met2, Met3a-L, and Met3-1 at concentrations of 1 μM, 5 μM or 10 μM in the presence of a MetAP1 cofactor Mn^2+ or Co^2+. In the test, enzymatic activity was measured by detecting probe fluorescence, that is, fluorescence emitted depending on the enzymatic activity of MetAP1.
(Conditions) • Scale: 20 μL • Cyclic peptide: 1, 5, 10 μM • MnCl2 or CoCl2: 100 μM • MetAP1 enzymatic activity probe: 1 μM • MetAP1: 1 μM • Tris (pH7.6): 25 mM • NaCl: 75 mM • Reaction: 37° C., 120 min.
After the reaction, the fluorescence intensity of the probe was measured using a plate reader.

Chain of OltF (as listed by the source): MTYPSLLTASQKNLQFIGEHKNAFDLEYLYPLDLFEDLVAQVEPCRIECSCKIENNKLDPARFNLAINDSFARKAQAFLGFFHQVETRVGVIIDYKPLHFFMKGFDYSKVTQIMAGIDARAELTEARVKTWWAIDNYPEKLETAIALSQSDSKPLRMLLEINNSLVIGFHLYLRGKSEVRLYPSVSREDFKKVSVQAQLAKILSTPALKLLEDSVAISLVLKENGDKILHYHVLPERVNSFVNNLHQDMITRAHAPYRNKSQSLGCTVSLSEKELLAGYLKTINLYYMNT
Chain of KgpF immobilized onto magnetic beads (as listed by the source): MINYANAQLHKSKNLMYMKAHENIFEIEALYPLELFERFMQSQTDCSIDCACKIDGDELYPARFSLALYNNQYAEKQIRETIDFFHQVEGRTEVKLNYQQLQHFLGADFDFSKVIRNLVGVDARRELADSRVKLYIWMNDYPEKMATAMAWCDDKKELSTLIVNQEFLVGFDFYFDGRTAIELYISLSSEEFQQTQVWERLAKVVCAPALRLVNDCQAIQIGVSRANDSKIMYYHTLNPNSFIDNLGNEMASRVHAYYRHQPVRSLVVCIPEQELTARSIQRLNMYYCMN

## YG292-PaktiL5: cyclic peptide obtained by translation and synthesis ({CH2CO}-[dY]IRRPWVPIIYLGC; thioether N-14 (inferred))
KgpF [1]
  prenylation modification with KgpF (MALDI-TOF-MS): modified with a prenyl group
KgpF v 3.1
  Peak intensity, The number of prenyl groups added 0: 1
  Peak intensity, The number of prenyl groups added 1: 5

## AY016: cyclic peptide containing a Trp at N terminal position, SEQ ID NO: 373 (WHDYRIARYHTYPC; also: cyclic)
OltF
  prenylation modification with OltF (MALDI-TOF-MS): Trp at the N terminal position was prenylated

## AY017: cyclic peptide containing a Trp at N terminal position, SEQ ID NO: 374 (WCDVSGRAGYFPC; also: cyclic)
OltF
  prenylation modification with OltF (MALDI-TOF-MS): Trp at the N terminal position was prenylated

## Clone-V3 (Ac-[dY]VWNVKIKPKTTKC; thioether (positions not given here); not fully specified (bridges))
KgpF [2]
  Peak intensity, The number of prenyl groups added 0: 1
  Peak intensity, The number of prenyl groups added 1: 5
[3]
  Peak intensity, The number of prenyl groups added 0: 1
  Peak intensity, The number of prenyl groups added 1: 5

## AY019: cyclic peptide containing a Trp at N terminal position, SEQ ID NO: 376 (WSNVSGRAGYFPC; also: cyclic)
OltF
  prenylation modification with OltF (MALDI-TOF-MS): Trp at the N terminal position was prenylated

## YG297-aMD4: cyclic peptide obtained by translation and synthesis ({CH2CO}-[dY]RQFNRRTHEVWNLDC; thioether N-16 (inferred))
KgpF [1]
  prenylation modification with KgpF (MALDI-TOF-MS): modified with a prenyl group
KgpF v 3.1
  Peak intensity, The number of prenyl groups added 0: 1
  Peak intensity, The number of prenyl groups added 1: 5

## Met2: cyclic peptide SEQ ID NO: 361 from MetAP1 screening, Fmoc solid-phase synthesis, prenylated with KgpF (YKRRHCLPPAWG; also: cyclic, ring not given here, prenylated with KgpF)
MetAP1
  inhibition of the enzymatic activity of MetAP1: inhibit the enzymatic activity of MetAP1

## AY015: cyclic peptide containing a Trp at N terminal position, SEQ ID NO: 372 (WSNFRIARYSNSSC; also: cyclic)
OltF
  prenylation modification with OltF (MALDI-TOF-MS): Trp at the N terminal position was prenylated

## AY018: cyclic peptide containing a Trp at N terminal position, SEQ ID NO: 375 (WNNRERGSDDDAGGPC; also: cyclic)
OltF
  prenylation modification with OltF (MALDI-TOF-MS): Trp at the N terminal position was prenylated

## Clone-T2 (Ac-[dY]LVRERENTWKVTC; thioether (positions not given here); not fully specified (bridges))
KgpF [2]
  Peak intensity, The number of prenyl groups added 0: 1
  Peak intensity, The number of prenyl groups added 1: 4
[3]
  Peak intensity, The number of prenyl groups added 0: 1
  Peak intensity, The number of prenyl groups added 1: 5

## AY020: cyclic peptide containing a Trp at N terminal position, SEQ ID NO: 377 (WSNRERGSDDDAGGPC; also: cyclic)
OltF
  prenylation modification with OltF (MALDI-TOF-MS): Trp at the N terminal position was prenylated

## YG289-S2iD7: cyclic peptide obtained by translation and synthesis ({CH2CO}-[dY]HDYRIWRYHTYPC; thioether N-14 (inferred))
KgpF [1]
  prenylation modification with KgpF (MALDI-TOF-MS): modified with a prenyl group
KgpF v 3.1
  Peak intensity, The number of prenyl groups added 0: 1
  Peak intensity, The number of prenyl groups added 1: 5
